Measurements reported in patent US9193983B2, “Assays for mutagenesis detection” (The Regents of the University of California, priority 2007, dated 2015).

What was measured:
Saccharomyces cerevisiae [1] = experiment: traditional plate-based yeast DEL assay (DNA deletions); format: cell-based; conditions: 1.4 mM; background about 20 DEL events per 100,000 cells
Protocol: In one embodiment, yeast cells (Saccharomyces cerevisiae) having a disruption of the his gene as the DEL selection marker are treated with test agents in 25 ml tubes and then plated for about 48 h at 30° C. Following treatment the cells are washed, for example, with PBS, and sonicated to assure dissociation of the cells into a single-cell suspension. The cells are then plated at an appropriate dilution (see below) onto medium lacking histidine as well as standard medium containing histidine. The histidine-lacking medium is used to determine recombination frequency. Standard medium (medium containing histidine) is used to determine the overall toxicity of the test agent.

Saccharomyces cerevisiae [2] = conditions: cited from earlier work; for induction of DNA deletions: previous experiments
[3] = test system: S. cerevisiae strain RS112; experiment: well-based DEL assay (MTS colorimetric, 96/384-well): genotoxicity and cytotoxicity
Description: The RS112 yeast DEL assay tester strain of Saccharomyces cerevisiae contains a plasmid with an internal fragment of the HIS3 gene integrated at the genomic HIS3 locus, yielding an integrative disruption of the HIS3 gene. This disruption results in two copies of the HIS3 gene, each copy having one terminal deletion. Recombination between the two his3 deletion alleles results in reversion to HIS3^+ and growth in the absence of histidine. This recombination event leads to a 6 kb DNA deletion comprising the integrated plasmid leading to deletion (DEL) events. The assay utilizing DEL events involves overnight growth of a single colony of the RS112 strain and subsequent subculture with the presence or absence of the chemical being tested for 17 hours at 30° C. under constant shaking. Yeast are then plated onto SC medium to determine the number of survivors (individual colonies are counted) and onto SC-HIS medium to score for DEL events. The traditional DEL assay is very powerful if one is testing a limited number of chemicals but becomes impractical for screening large numbers of chemicals and chemical libraries.
For 384-well plate format, 1 μl of yeast (˜100,000 cells) was pipetted into 8 microplate wells for each compound, four of which containing 70 μl SC media and four containing 70 μl SC-HIS media; each well was supplemented with 14 μl of MTS and 5 μl of compound. For 96-well plate format, the above was consistent except media, MTS, and compound volumes were 100 μl, 20 μl, and 7 μl, respectively. Control wells were treated with water in lieu of compound. The outermost columns of the 96-well plate and outer two columns of each 384-well plate were excluded from experimentation lest edge evaporative effects alter the data. Plates were incubated at 30° C. at normal atmosphere during which yeast were grown in the presence of the tested compound and 490 nm absorbance was measured 10-18 hr later using a Molecular Devices SpectraMax M5 microplate reader (Sunnyvale, Calif.).
Survival for a given compound treatment was quantified by averaging the absorbance across the four treated wells in SC media and dividing that by the average absorbance of control wells. DEL induction was quantified by dividing the absorbance of each SC-HIS well by the corresponding paired SC well. Thus for each compound done in quadruplicate, each plate contains a set of 4 different measurements of DEL induction. For each compound, ratio of the average DEL induction in treated versus control cultures was taken as the fold-increase in DEL events (HIS^+ growth). A Student's t-test was performed on the 4 measurements of DEL induction and the same measurements recorded from control wells to determine significance of the fold-increase. It should be noted that this value of fold-increase is analyzed statistically for significance and not absolute; thus two different chemicals may have the same fold-increase but varying levels of significance. In plots and tables, data from a single experiment performed in quadruplicate is presented; all experiments were repeated independently in at least 3 separate experiments in both 96 and 384-well plate formats.

Saccharomyces cerevisiae [4] = conditions: Angeli's salt as HNO donor; cited from earlier work

| Structure (SMILES) | induction of DNA deletions (Saccharomyces cerevisiae [2]) | Cytotoxicity (% survival) ([3]; 0.2 mM final in well) [%] | DEL (fold increase) ([3]; 0.2 mM final in well) [fold] | DEL significance ([3]; 0.2 mM final in well) | Cytotoxicity (% survival) ([3]; 0.7 mM final in well) [%] | Cytotoxicity significance ([3]; 0.7 mM final in well) | DEL (fold increase) ([3]; 0.7 mM final in well) [fold] | DEL significance ([3]; 0.7 mM final in well) | Cytotoxicity (% survival) ([3]; 1.4 mM final in well) [%] | Cytotoxicity significance ([3]; 1.4 mM final in well) | DEL (fold increase) ([3]; 1.4 mM final in well) [fold] | DEL significance ([3]; 1.4 mM final in well) | further results |
| --- | --- | --- | --- | --- | --- | --- | --- | --- | --- | --- | --- | --- | --- |
| [Cl][Cr]([Cl])[Cl] [Cr (3), CrCl3] | induced DNA deletions | 110.1 | 0.93 | ns (ns—not significant (p > 0.05)) | 85.8 | ** (** (p < 0.01)) | 0.98 | ns (ns—not significant (p > 0.05)) | 36.8 | *** (*** (p < 0.005)) | 1.44 | *** (*** (p < 0.005)) | increase above background (Saccharomyces cerevisiae [1]): approximately 13.6 cells; DEL events per 100,000 cells (Saccharomyces cerevisiae [2]; 1.4 mM (~222 μg/ml), plate-based assay, previously observed): 33.6 DEL events per 100,000 cells; lowest dose which induced significant genotoxicity (Saccharomyces cerevisiae [2]; traditional agar plate version): 0.7 mM; DEL recombination ([3]; 1.4 mM (~222 μg/ml)): significant increase in DEL recombination; genotoxic events ([3]; 0.2 (~32 μg/ml) or 0.7 mM (~111 μg/ml)): did not induce any genotoxic events; lowest detectable concentration (significant genotoxicity) ([3]; well-based format): 1.4 mM |
| [K+].[K+].[O]=[Cr](=[O])([O-])[O][Cr](=[O])(=[O])[O-] [Cr (6), K2Cr2O7] | induced DNA deletions | 32.1 | 2.13 | *** (*** (p < 0.005)) | 9.91 | *** (*** (p < 0.005)) | 3.78 | *** (*** (p < 0.005)) | 10.8 | *** (*** (p < 0.005)) | 3.12 | *** (*** (p < 0.005)) | Cytotoxicity significance ([3]; 0.2 mM final in well): *** (*** (p < 0.005)); induction of the DEL assay ([3]; between 0.2 and 1.4 mM (~20-140 μg/ml)): very potent induction of the DEL assay; survival ([3]; with increased dose between 0.2 and 1.4 mM (~20-140 μg/ml)): severely decreased survival |
| N=O [HNO] | – | – | – | – | – | – | – | – | – | – | – | – | induction of DNA deletions and recombination (Saccharomyces cerevisiae [2]; Angeli's salt as HNO donor): potent inducer of DNA deletions and recombination; genotoxicity (Saccharomyces cerevisiae [2]; under aerobic and anaerobic conditions): observed; induction of point mutations (Saccharomyces cerevisiae [4]): negative |
